pIC50: −log10 of the molar value.
molecular target: Human CYP17 (Homo sapiens (Human), UniProt P05093); experiment: CYP17 Total SPA Assay; type: biochemical; settings: microsomes from HEK2 cells stably transfected with CYP17; 3H-Pregnenolone 1 uM, NADPH 2 mM; 45 minutes at room temperature
Method: The assays were performed in U-bottom 384-well optiplates. The final assay volume was 15 μl prepared from 7.5 μl additions of microsomes (prepared as a high-speed pellet from homogenized HEK2 cells stably transfected with CYP17), substrates (3H-Pregnenolone and NADPH) and test compounds in assay buffer (50 mM Potassium phosphate pH 7.2, 10% glycerol). The reaction was initiated by the combination of the microsomes and substrates in wells containing compound. The reaction was incubated at room temperature for 45 minutes and terminated by adding 7.5 μl of 0.2N HCl to each well. Following an incubation period of 10 minutes, anti-DHEA-coated SPA beads were added to the terminated reaction. The plate was sealed and incubated overnight with shaking at 4° C. The beads were allowed to settle in the plate for 1 hour and the plate read on a TOPCOUNT® (Perkin-Elmer) plate reader.
Inhibition data were calculated by comparison to no enzyme control reactions for 100% inhibition and vehicle-only reactions for 0% inhibition. The final concentration of reagents in the assays are NADPH, 2 mM; 3H-Pregnenolone, 1 uM; microsomes, 1.25 ug/ml; Anti-DHEA-SPA beads (0.125 mg/well) in 0.5% Triton X-100 and DMSO, 0.05%. Dose response curves were generated to determine the concentration required inhibiting 50% of enzyme activity (IC50). Compounds were dissolved at 10 mM in dimethylsulfoxide (DMSO) and evaluated at eleven concentrations, each in duplicate. IC50 values were derived by non-linear regression analysis.
Table 5 below lists the IC50 values for the following examples of this invention measured in the Total CYP17 SPA Assay hereinabove.

Chain of Human CYP17 (P05093 whole entry): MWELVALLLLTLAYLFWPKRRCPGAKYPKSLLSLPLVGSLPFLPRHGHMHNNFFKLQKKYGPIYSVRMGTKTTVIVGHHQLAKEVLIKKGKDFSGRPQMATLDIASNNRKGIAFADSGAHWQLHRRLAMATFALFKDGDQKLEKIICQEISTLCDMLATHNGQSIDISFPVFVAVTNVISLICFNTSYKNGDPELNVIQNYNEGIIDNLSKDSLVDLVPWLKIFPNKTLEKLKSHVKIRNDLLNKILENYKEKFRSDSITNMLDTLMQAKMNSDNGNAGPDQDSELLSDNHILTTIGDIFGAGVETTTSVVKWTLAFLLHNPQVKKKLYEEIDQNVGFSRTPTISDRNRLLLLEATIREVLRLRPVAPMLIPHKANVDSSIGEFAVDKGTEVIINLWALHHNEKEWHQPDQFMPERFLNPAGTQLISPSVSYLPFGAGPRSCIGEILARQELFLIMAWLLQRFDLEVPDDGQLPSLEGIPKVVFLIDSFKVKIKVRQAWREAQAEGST

| pIC50 | SMILES |
| --- | --- |
| 8.96 | Cc1ccncc1-c1cccc2c(-c3ccccc3)noc12 [Example 1, 7-(4-Methylpyridin-3-yl)-3-phenylbenzo[d]isoxazole] |
| 6.45 | Cc1ncncc1-c1cccc2c(-c3ccccc3)noc12 [Example 4, 7-(4-Methylpyrimidin-5-yl)-3-phenylbenzo[d]isoxazole] |
| 8.49 | Cc1ccncc1-c1cccc2c(-c3ccc(F)cc3)noc12 [Example 6, 3-(4-Fluorophenyl)-7-(4-methylpyridin-3-yl)benzo[d]isoxazole] |
| 6.72 | Fc1ccc(-c2noc3c(-c4cncn5cccc45)cccc23)cc1 [Example 14, 3-(4-Fluorophenyl)-7-(pyrrolo[1,2-c]pyrimidin-4-yl)benzo[d]isoxazole] |
| 7.19 | FC(F)(F)COc1ncncc1-c1cccc2c(-c3cnccn3)noc12 [Example 26, 3-(Pyrazin-2-yl)-7-(4-(2,2,2-trifluoroethoxy)pyrimidin-5-yl)benzo[d]isoxazole] |
| 7.32 | Clc1ccncc1-c1cccc2c(C3CC3)noc12 [Example 30, 7-(4-Chloropyridin-3-yl)-3-cyclopropylbenzo[d]isoxazole] |
| 7.38 | Clc1ccccc1-c1noc2c(-c3cncnc3-n3cncn3)cccc12 [Example 52, 7-(4-(1H-1,2,4-Triazol-1-yl)pyrimidin-5-yl)-3-(2-chlorophenyl)benzo[d]isoxazole] |
| 6.28 | Clc1ccccc1-c1noc2c(-c3cncnc3-n3nccn3)cccc12 [Example 57, 7-(4-(2H-1,2,3-Triazol-2-yl)pyrimidin-5-yl)-3-(2-chlorophenyl)benzo[d]isoxazole] |
| 6.28 | Cc1ccncc1-c1cccc2c(OCCN(C)C)noc12 [Example 68] |
| 8.41 | Cc1ccncc1-c1ccnc2c(-c3ccc(F)cc3)noc12 [Example 86, 3-(4-Fluorophenyl)-7-(4-methylpyridin-3-yl)isoxazolo[4,5-b]pyridine] |
| 7.12 | Cc1ccncc1-c1ccnc2c(-c3nccs3)csc12 [Example 94, 7-(4-Methylpyridin-3-yl)-3-(thiazol-2-yl)thieno[3,2-b]pyridine] |
| 8.10 | Cc1ncncc1-c1ccnc2c(-c3ccc(F)cc3)csc12 [Example 98, 3-(4-Fluorophenyl)-7-(4-methylpyrimidin-5-yl)thieno[3,2-b]pyridine] |
| 8.40 | Fc1ccc(-c2csc3c(-c4cncnc4C4CC4)ccnc23)cc1 [Example 99, 7-(4-Cyclopropylpyrimidin-5-yl)-3-(4-fluorophenyl)thieno[3,2-b]pyridine] |
| 8.40 | Nc1ncncc1-c1ccnc2c(-c3ccc(F)cc3Cl)csc12 [Example 103, 5-(3-(2-Chloro-4-fluorophenyl)thieno[3,2-b]pyridin-7-yl)pyrimidin-4-amine] |
| 7.25 | Fc1ccc(-c2csc3c(-c4cncc5ccccc45)cccc23)cc1 [Example 109, 4-(3-(4-Fluorophenyl)benzo[b]thiophen-7-yl)isoquinoline] |
| 6.21 | Cc1ccncc1-c1cccc2c(OCc3ccc4ccccc4c3)noc12 [Example 124, 7-(4-methylpyridin-3-yl)-3-(naphthalen-2-ylmethoxy)benzo [d]isoxazole] |
| 6.60 | Cc1ccncc1-c1cccc2c(OCc3ccc(Cl)cc3)noc12 [Example 128, 3-(4-chlorobenzyloxy)-7-(4-methylpyridin-3-yl)benzo[d] isoxazole] |
| 7.10 | COc1ccc(COc2noc3c(-c4cnccc4C)cccc23)cc1 [Example 129, 3-(4-methoxybenzyloxy)-7-(4-methylpyridin-3-yl)benzo[d] isoxazole] |

Reference: US8969586B2 (Bristol-Myers Squibb Company, priority 2011, dated 2015)
